The test system of one series is human ApoA-I promoter. Nature of the series: ApoA-I promoter induction in Caco-2 intestinal cells (pAI.474-Luc luciferase reporter). Type of series: cell-based. As to conditions: Caco-2 cells, 15 μM, 48 hours incubation, luciferase activity vs control samples. As to the method:
To examine the effects of compounds of the invention to increase ApoA-I expression, Caco-2 cells, an intestinal cell line derived from human epithelial intestinal cells, were grown under conditions recommended by the ATCC and summarized in United States Patent Application Publication No. 20040033480 (“Wong”), incorporated herein by reference.
Briefly, the promoter region of the gene encoding human ApoA-I was isolated and ligated upstream of the firefly luciferase gene to construct the reporter plasmid pAI.474-Luc. This reporter plasmid and pRSV-β-galactosidase (as a control for transfection efficiency) were co-transfected to Caco-2 cells. The Caco-2 cells were then incubated in a MEM selection media containing 20% fetal calf serum supplemented with G418 (final concentration: 0.5 mg/mL, Gibco) to give established strains that stably express from the reporter gene. The strains were seeded in 6-well culture plates and incubated for 48 hours at 37° C. under 5% carbon dioxide. Cells were starved for 24 hrs in MEM selection media containing 0.5% FBS. Then, a solution of a compound of the invention in DMSO or other appropriate solvent was added to the wells at a final concentration of 0 to 100 μM in MEM selection media containing 0.5% FBS.
After further incubation for 48 hours, the cells were harvested and lysed using Reporter Lysis Buffer (PROMEGA E3971), and 50 μL of luciferase assay reagent (PROMEGA E4550 Luciferase Reporter 1000 assay system) was added to measure luciferase activity with a luminometer (Fluoroskan Ascent FL from Thermo electron Corporation). Luciferase activity was normalized to lysate protein concentrations, measured using Bradford Reagent (BioRad Protein Assay reagent Cat #500-0006). The luciferase activity of cells treated with various concentrations of test compounds was compared to that of solvent control sample (i.e., solvent without any compound of the present invention added) and untreated control sample.
(In a reporter assay the amount or activity of a reporter protein is the signal.)

Where a name gives a salt, the structure may show the parent alone.

Compound `N#CCc1c(-c2ccc(O)cc2)oc2ccccc2c1=O` [Example 21, 2-(2-(4-Hydroxyphenyl)-4-oxo-4H-chromen-3-yl)acetonitrile] yielded a melting point of 258.2 to 259.5 °C. Moreover, the “ApoA-I Promoter Induction” value in the series with human ApoA-I promoter was “increased”. The compound `O=c1cc(-c2ccc(C[n+]3ccccc3)cc2)oc2ccc(O)cc12.[Cl-]` registered a melting point of 243 to 247 °C. As to `CN(C)Cc1c(-c2ccc(O)cc2)oc2ccccc2c1=O.Cl` [Example 20, 3-((Dimethylamino)methyl)-2-(4-hydroxyphenyl)-4H-chromen-4-one hydrochloride], the melting point fell in the range of 271.5 to 272.3 °C. Moreover, the “ApoA-I Promoter Induction” value with human ApoA-I promoter was “no increase”. For `N#Cc1ccc(-c2cc(=O)c3cccnc3o2)cc1` [Example 40, 4-(4-Oxo-4H-pyrano[2,3-b]pyridine-2-yl)benzonitrile], in that order: 250 to 252 °C and “increased”. In the case of `Cl.Nc1cccc2c(=O)cc(-c3ccc(O)c(F)c3)oc12`, the melting point lay within 256.4 to 258.5 °C. For the compound `COc1cc(OC)c2c(=O)cc(-c3ccc(O)cc3)oc2c1` [Example 18, 2-(4-Hydroxyphenyl)-5,7-dimethoxy-4H-chromen-4-one], the melting point fell in the range of 301 to 303 °C. In the series on human ApoA-I promoter, the “ApoA-I Promoter Induction” value is listed as “increased”. Consider `COc1ccc(-c2cc(=O)c3c(F)cc(F)cc3o2)cc1` [Example 1, 5,7-Difluoro-2-(4-methoxy-phenyl)-chromen-4-one], for which the “ApoA-I Promoter Induction” value in the series with human ApoA-I promoter is on record as “no increase”. Consider `O=c1cc(-c2ccc(O)cc2)oc2ccccc12` [2-(4-Hydroxyphenyl)-chromen-4-one, 2-(4-Hydroxy-phenyl)-chromen-4-one, reference compound], for which, in the series on human ApoA-I promoter, the “ApoA-I Promoter Induction” value was “increased”. For `O=c1cc(-c2ccc(O)cc2[N+](=O)[O-])oc2ccccc12` [Example 10, 2-(4-Hydroxy-2-nitrophenyl)chromen-4-one], the melting point lay in the range of 277 to 279 °C.

Consider `O=c1cc(-c2ccc(O)cc2)oc2cccc(O)c12` [5-Hydroxy-2-(4-hydroxy-phenyl)-chromen-4-one, reference compound], for which the “ApoA-I Promoter Induction” value in the series with human ApoA-I promoter was “increased”. Consider `O=c1cc(-c2ccc(O)cc2)oc2cc(F)cc(F)c12` [Example 2, 5,7-Difluoro-2-(4-hydroxyphenyl)-4H-chromen-4-one], for which the “ApoA-I Promoter Induction” value with human ApoA-I promoter is on record as “increased”. `CC(=O)Oc1ccc(-c2cc(=O)c3cccnc3o2)cc1` [Example 75, 4-(4-Oxo-4H-pyrano[2,3-b]pyridine-2-yl)phenyl acetate] had a melting point of 167 to 169 °C. Further, in the series with human ApoA-I promoter, the “ApoA-I Promoter Induction” value is reported as “increased”. For `O=c1cc(-c2ccccc2)oc2cc(O)ccc12` [7-Hydroxy-2-phenyl-4H-chromen-4-one, 7-hydroxy-2-phenyl-4H-chromen-4-one, reference compound], the “ApoA-I Promoter Induction” value in the series with human ApoA-I promoter is reported as “increased”. `O=c1cc(-c2ccc(O)c(Br)c2)oc2ccccc12` [Example 19, 2-(3-Bromo-4-hydroxyphenyl)-4H-chromen-4-one] displayed a melting point of 273.5 to 274.9 °C. Moreover, the “ApoA-I Promoter Induction” value in the series on human ApoA-I promoter is recorded as “increased”.

For the compound `COc1cccc2c(=O)cc(-c3ccc(O)cc3)oc12` [Example 17, 2-(4-Hydroxyphenyl)-8-methoxy-4H-chromen-4-one], the melting point was 281 to 283 °C. Besides, the “ApoA-I Promoter Induction” value with human ApoA-I promoter is listed as “increased”. For the compound `O=c1cc(-c2ccc(O)cc2)oc2cc(O)ccc12` [7-Hydroxy-2-(4-hydroxy-phenyl)-chromen-4-one, reference compound], in the series with human ApoA-I promoter, the “ApoA-I Promoter Induction” value was “increased”. As for `O=c1cc(-c2cccc(O)c2)oc2ccccc12` [2-(3-Hydroxyphenyl)-4H-chromen-4-one, 2-(3-hydroxyphenyl)-4H-chromen-4-one, reference compound], the “ApoA-I Promoter Induction” value in the series with human ApoA-I promoter is reported as “increased”. Turning to `COc1ccc(-c2cc(=O)c3ccccc3o2)cc1` [Example 4, 2-(4-Methoxy-phenyl)-4H-chromen-4-one], in the series with human ApoA-I promoter, the “ApoA-I Promoter Induction” value is listed as “increased”. As to `O=c1cc(-c2ccccc2)oc2cccc(O)c12` [5-Hydroxy-2-phenyl-4H-chromen-4-one, 5-Hydroxy-2-phenyl-chromen-4-one, reference compound], the “ApoA-I Promoter Induction” value with human ApoA-I promoter is “increased”. Consider `CNc1nc(-c2ccc(O)c(F)c2)cc2c(OC)cccc12` [Example 58, 2-Fluoro-4-(5-methoxy-1-(methylamino)isoquinolin-3-yl)phenol], for which the melting point lay within 185 to 187 °C. As to `O=c1cc(-c2ccc(O)cc2)oc2c(O)cccc12` [Example 5, 8-Hydroxy-2-(4-hydroxy-phenyl)-4H-chromen-4-one], the “ApoA-I Promoter Induction” value with human ApoA-I promoter is reported as “increased”. `O=c1cc(-c2ccc(O)cc2)oc2c[n+]([O-])ccc12` [Example 30, 2-(4-Hydroxyphenyl)-4-oxo-4H-pyrano[2,3-c]pyridine 7-oxide]: the melting point fell in the range of 307 to 308 °C. The “ApoA-I Promoter Induction” value in the series with human ApoA-I promoter is “no increase”. On to `O=c1cc(-c2ccc(O)cc2)oc2ccc(O)cc12` [6-hydroxy-2-(4-hydroxyphenyl)-4H-chromen-4-one, reference compound], for which the “ApoA-I Promoter Induction” value in the series on human ApoA-I promoter was “increased”. `O=c1c(CO)c(-c2ccc(O)cc2)oc2ccccc12` [Example 22, 3-(Hydroxymethyl)-2-(4-hydroxyphenyl)-4H-chromen-4-one] returned a melting point of 234 to 235 °C. On to `O=c1nc(-c2ccc(O)cc2)oc2ccccc12` [Example 67, 2-(4-Hydroxyphenyl)benzo[e][1,3]oxazin-4-one], for which the melting point was 273 to 275 °C. The “ApoA-I Promoter Induction” value in the series on human ApoA-I promoter is on record as “increased”. Turning to `Oc1ccc(-c2ccc3ccccc3c2)cc1` [Example 65, 4-Naphthalen-2-yl-phenol], the “ApoA-I Promoter Induction” value with human ApoA-I promoter is on record as “increased”.

Regarding `CC(=O)Oc1ccc(C2=COc3ccccc3O2)cc1` [Example 77, 4-(Benzo[b][1,4]dioxin-2-yl)phenyl acetate], the melting point was 123 to 125 °C. Besides, the “ApoA-I Promoter Induction” value with human ApoA-I promoter was “increased”. For `O=c1cc(-c2ccc([N+](=O)[O-])cc2)oc2ncccc12` [Example 80, 2-(4-Nitrophenyl)-4H-pyrano[2,3-b]pyridine-4-one], in that order: 261 to 263 °C and “no increase”. On to `O=C1C=C(c2ccc(O)cc2)S(=O)(=O)c2ccccc21` [Example 66, 2-(4-Hydroxy-phenyl)-1,1-dioxo-1H-1λ^6-thiochromen-4-one], for which the melting point is 222 to 224 °C. Turning to `N=C(N)NCCCC(N)C(=O)Oc1ccc(-c2cc(=O)c3ccccc3o2)cc1` (stereo not shown) [Example 76, 2-Amino-5-guanidino-pentanoic acid 4-(4-oxo-4H-chromen-2-yl)phenyl ester trihydrochloride], the “ApoA-I Promoter Induction” value in the series with human ApoA-I promoter is listed as “increased”.

With `COc1cc(-c2cc(=O)c3ccccc3o2)ccc1O` [2-(4-hydroxy-3-methoxyphenyl)-4H-chromen-4-one, reference compound], in the series on human ApoA-I promoter, the “ApoA-I Promoter Induction” value is “increased”. Still for that read-out and setting: in the case of `O=c1cc(-c2ccc(O)cc2)[nH]c2cc(O)cc(O)c12` [Example 50, 5,7-Dihydroxy-2-(4-hydroxyphenyl)-quinolin-4(H)-one] it was “increased”.

As to `N#Cc1ccc2oc(-c3ccc(O)cc3)cc(=O)c2c1` [Example 23, 2-(4-Hydroxyphenyl)-4-oxo-4H-chromene-6-carbonitrile], the melting point is 296 to 298 °C. Turning to `Oc1ccc(-c2ccc3ccccc3c2)nc1` [Example 68, 6-Naphthalen-2-yl-pyridin-3-ol], the melting point was in the range of 168 to 169 °C. Compound `CN(C)Cc1ccc2oc(-c3ccc(O)cc3)cc(=O)c2c1` [Example 28, 6-((Dimethylamino)methyl)-2-(4-hydroxyphenyl)-4H-chromen-4-one] registered a melting point of 99 to 102 °C. The compound `O=c1cc(-c2ccc(O)cc2)oc2c([N+](=O)[O-])cccc12` [Example 16, 2-(4-Hydroxyphenyl)-8-nitro-4H-chromen-4-one] yielded a melting point of 299 to 301 °C. For the compound `O=c1cc(-c2ccccc2)oc2ccccc12` [2-Phenyl-4H-chromen-4-one, 2-phenyl-4H-chromen-4-one, reference compound], the “ApoA-I Promoter Induction” value with human ApoA-I promoter is “increased”. Turning to `O=c1cc(-c2ccc(O)cc2F)oc2ccccc12` [Example 15, 2-(2-Fluoro-4-hydroxyphenyl)chromen-4-one], the melting point lay within 287 to 289 °C. As to `CC(=O)Nc1cc(O)ccc1-c1cc(=O)c2ccccc2o1` [Example 8, N-[5-Hydroxy-2-(4-oxo-4H-chromen-2-yl)-phenyl]acetamide], the melting point was 253 to 255 °C. Take `O=c1cc(-c2ccc(O)cc2)oc2cc[n+]([O-])cc12` [Example 32, 2-(4-Hydroxyphenyl)-4-oxo-4H-pyrano[3,2-c]pyridine 6-oxide]: in the series with human ApoA-I promoter, the “ApoA-I Promoter Induction” value was “no increase”. As for `O=c1c(-c2ccc(O)cc2)coc2cc(O)cc(O)c12` [5,7-dihydroxy-3-(4-hydroxyphenyl)-4H-chromen-4-one, reference compound], the “ApoA-I Promoter Induction” value in the series on human ApoA-I promoter is reported as “increased”.

The term melting point denotes the temperature, or range, at which the solid turns liquid.

(Values after patent US8093273B2, “Flavanoids and isoflavanoids for the prevention and treatment of cardiovascular diseases” (Resverlogix Corp., priority 2004, dated 2012).)
